Laboratory results taken from ChEMBL document CHEMBL5385895, “Design, synthesis, biological evaluation of urea substituted 1,2,5-oxadiazole-3-carboximidamides as novel indoleamine 2,3-dioxygenase-1 (IDO1) inhibitors” (Eur J Med Chem, 2023).
pIC50: −log10 of the molar value. Activity calls are given as the source filed them. No cut-off for these calls is given here.

Key:
[1] = Toxicity in C57BL/6 mouse implanted with mouse LLC cells assessed as pathological changes in lung at 100 to 200 mg/kg, po bid treated for 21 days by H and E staining assay; assay type: organism-based, Lewis lung carcinoma; conditions: in vivo, 504 h, dose 100-200 mg/kg, time 21 day
[2] = AUC (0 to t) in Sprague-Dawley rat at 5 mg/kg, iv by LC-MS/MS analysis; assay type: ADME, organism-based; parameters: dose 5 mg/kg, route iv; conditions: in vivo
[3] = AUC (0 to infinity) in Sprague-Dawley rat at 5 mg/kg, iv by LC-MS/MS analysis; assay type: ADME, organism-based; parameters: dose 5 mg/kg, route iv; conditions: in vivo
[4] = Toxicity in C57BL/6 mouse implanted with mouse LLC cells assessed as kidney function by measuring change in BUN level at 100 to 200 mg/kg, po bid treated for 21 days […]; assay type: organism-based, Lewis lung carcinoma; conditions: in vivo, 504 h, dose 100-200 mg/kg, time 21 day
[5] = Anti-tumor efficacy against mouse LLC cells implanted in C57BL/6 mouse assessed as tumor growth inhibition at 100 mg/kg, po bid treated for 21 days relative to control; assay type: functional; conditions: Lewis lung carcinoma, 504 h, time 21 day, read-out: TGI
[6] = Tmax in Sprague-Dawley rat at 25 mg/kg, po by LC-MS/MS analysis; assay type: ADME, organism-based; conditions: in vivo
[7] = Toxicity in C57BL/6 mouse implanted with mouse LLC cells assessed as liver function by measuring change in ALT level at 100 to 200 mg/kg, po bid treated for 21 days […]; assay type: organism-based, Lewis lung carcinoma; conditions: in vivo, 504 h, dose 100-200 mg/kg, time 21 day
[8] = Half life in Sprague-Dawley rat at 25 mg/kg, po by LC-MS/MS analysis; assay type: ADME, organism-based; conditions: in vivo
[9] = Apparent permeability of the compound across basolateral to apical side in dog MDCKII cells measured for 2 hrs by LC-MS/MS analysis; assay type: ADME, cell-based, Canis lupus familiaris, MDCK-II; conditions: MDCK
in vitro = conditions: dog, MDCK
[10] = Toxicity in C57BL/6 mouse implanted with mouse LLC cells assessed as change in body weight at 100 to 200 mg/kg, po bid treated for 21 days; assay type: organism-based, Lewis lung carcinoma; conditions: in vivo, 504 h, dose 100-200 mg/kg, time 21 day
[11] = biological target: T1, Indoleamine 2,3-dioxygenase 1 (Homo sapiens, UniProt P14902); assay: Inhibition of IDO1 in IFN-gamma-induced human HeLa cells assessed as reduction in N-formylkynurenine formation using L-tryptophan as substrate preincubated for 24 hrs followed by substrate addition and measured after 30 mins by SpectraMax microplate reader analysis; assay type: cell-based
T1 sequence (P14902 whole entry): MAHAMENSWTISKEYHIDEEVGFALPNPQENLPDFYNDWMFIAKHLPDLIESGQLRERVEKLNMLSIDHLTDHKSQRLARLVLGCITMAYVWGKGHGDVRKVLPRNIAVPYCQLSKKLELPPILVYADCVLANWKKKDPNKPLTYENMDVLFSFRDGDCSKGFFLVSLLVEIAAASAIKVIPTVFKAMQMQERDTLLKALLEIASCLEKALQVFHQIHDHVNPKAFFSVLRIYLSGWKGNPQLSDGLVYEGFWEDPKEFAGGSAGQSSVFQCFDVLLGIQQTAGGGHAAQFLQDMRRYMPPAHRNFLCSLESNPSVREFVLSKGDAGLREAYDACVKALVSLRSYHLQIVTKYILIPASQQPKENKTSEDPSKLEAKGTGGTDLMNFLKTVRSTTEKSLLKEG

[12] = Plasma clearance in Sprague-Dawley rat at 5 mg/kg, iv by LC-MS/MS analysis; assay type: ADME, organism-based
[13] = Anti-tumor efficacy against mouse LLC cells implanted in C57BL/6 mouse assessed as tumor growth inhibition at 200 mg/kg, po bid treated for 21 days relative to control; assay type: functional; conditions: Lewis lung carcinoma, 504 h, time 21 day, read-out: TGI
[14] = Tmax in Sprague-Dawley rat at 5 mg/kg, iv by LC-MS/MS analysis; assay type: ADME, organism-based; conditions: in vivo
[15] = biological target: Tryptophan 2,3-dioxygenase (Homo sapiens) (UniProt P48775); assay: Inhibition of human recombinant TDO assessed as reduction in N-formylkynurenine formation using L-tryptophan as substrate at 1 uM preincubated for 30 mins followed by substrate addition and measured after 20 mins by SpectraMax microplate reader analysis; conditions: time 50.0 min
Chain of Tryptophan 2,3-dioxygenase (Homo sapiens) (P48775 whole entry, looked up): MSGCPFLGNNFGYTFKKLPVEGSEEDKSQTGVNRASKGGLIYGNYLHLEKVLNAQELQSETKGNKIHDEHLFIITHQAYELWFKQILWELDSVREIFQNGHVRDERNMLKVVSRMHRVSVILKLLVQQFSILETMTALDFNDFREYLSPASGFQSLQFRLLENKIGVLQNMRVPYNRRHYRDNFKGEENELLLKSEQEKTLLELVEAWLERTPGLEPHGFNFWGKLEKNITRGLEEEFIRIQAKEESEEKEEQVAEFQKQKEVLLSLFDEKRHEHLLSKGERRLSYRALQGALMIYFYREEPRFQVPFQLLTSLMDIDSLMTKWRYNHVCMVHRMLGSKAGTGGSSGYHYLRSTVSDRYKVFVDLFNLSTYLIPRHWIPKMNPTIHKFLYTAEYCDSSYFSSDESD

CT26 = assay: cells; conditions: Mus musculus, CT26, 24 h
[16] = Toxicity in C57BL/6 mouse implanted with mouse LLC cells assessed as pathological changes in liver at 100 to 200 mg/kg, po bid treated for 21 days by H and E staining assay; assay type: organism-based, Lewis lung carcinoma; conditions: in vivo, 504 h, dose 100-200 mg/kg, time 21 day
cells = conditions: Mus musculus, Lung cancer cell line, 24 h
[17] = Toxicity in C57BL/6 mouse implanted with mouse LLC cells assessed as liver function by measuring change in AST level at 100 to 200 mg/kg, po bid treated for 21 days […]; assay type: organism-based, Lewis lung carcinoma; conditions: in vivo, 504 h, dose 100-200 mg/kg, time 21 day
HCT-116 = assay: cells; conditions: Homo sapiens, HCT-116, 24 h
[18] = AUC (0 to infinity) in Sprague-Dawley rat at 25 mg/kg, po by LC-MS/MS analysis; assay type: ADME, organism-based; parameters: dose 25 mg/kg, route po; conditions: in vivo
[19] = Toxicity in C57BL/6 mouse implanted with mouse LLC cells assessed as liver function by measuring change in total protein level at 100 to 200 mg/kg, po bid treated for 21 days […]; assay type: organism-based, Lewis lung carcinoma; conditions: in vivo, 504 h, dose 100-200 mg/kg, time 21 day
[20] = Toxicity in C57BL/6 mouse implanted with mouse LLC cells assessed as pathological changes in heart at 100 to 200 mg/kg, po bid treated for 21 days by H and E staining assay; assay type: organism-based, Lewis lung carcinoma; conditions: in vivo, 504 h, dose 100-200 mg/kg, time 21 day
[21] = AUC (0 to t) in Sprague-Dawley rat at 25 mg/kg, po by LC-MS/MS analysis; assay type: ADME, organism-based; parameters: dose 25 mg/kg, route po; conditions: in vivo
HeLa = assay: cells; conditions: Homo sapiens, 24 h
[22] = Volume of distribution in Sprague-Dawley rat at 5 mg/kg, iv by LC-MS/MS analysis; assay type: ADME, organism-based; conditions: in vivo
[23] = Cmax in Sprague-Dawley rat at 5 mg/kg, iv by LC-MS/MS analysis; assay type: ADME, organism-based; parameters: dose 5 mg/kg, route iv; conditions: in vivo
[24] = Toxicity in C57BL/6 mouse implanted with mouse LLC cells assessed as pathological changes in kidney at 100 to 200 mg/kg, po bid treated for 21 days by H and E staining assay; assay type: organism-based, Lewis lung carcinoma; conditions: in vivo, 504 h, dose 100-200 mg/kg, time 21 day
[25] = biological target: T2, Indoleamine 2,3-dioxygenase 2 (Homo sapiens) (UniProt Q6ZQW0); assay: Inhibition of human recombinant IDO2 assessed as reduction in N-formylkynurenine formation using L-tryptophan as substrate at 1 uM preincubated for 30 mins followed by substrate addition and measured after 20 mins by SpectraMax microplate reader analysis; conditions: time 50.0 min
T2 sequence (whole entry): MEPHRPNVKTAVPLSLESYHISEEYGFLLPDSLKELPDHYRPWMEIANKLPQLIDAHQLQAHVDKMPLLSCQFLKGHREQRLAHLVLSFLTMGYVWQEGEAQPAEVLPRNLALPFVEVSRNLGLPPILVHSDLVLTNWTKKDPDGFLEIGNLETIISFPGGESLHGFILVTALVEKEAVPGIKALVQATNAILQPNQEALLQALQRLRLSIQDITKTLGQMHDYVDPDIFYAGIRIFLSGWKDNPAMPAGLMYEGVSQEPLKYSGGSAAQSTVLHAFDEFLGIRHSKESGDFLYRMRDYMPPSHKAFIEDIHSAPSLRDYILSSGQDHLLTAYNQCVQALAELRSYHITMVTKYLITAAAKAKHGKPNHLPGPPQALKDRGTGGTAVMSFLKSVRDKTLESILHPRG

[26] = Toxicity in C57BL/6 mouse implanted with mouse LLC cells assessed as mortality at 100 to 200 mg/kg, po bid treated for 21 days; assay type: organism-based, Lewis lung carcinoma; conditions: in vivo, 504 h, dose 100-200 mg/kg, time 21 day
[27] = Cmax in Sprague-Dawley rat at 25 mg/kg, po by LC-MS/MS analysis; assay type: ADME, organism-based; parameters: dose 25 mg/kg, route po; conditions: in vivo
[28] = Toxicity in C57BL/6 mouse implanted with mouse LLC cells assessed as pathological changes in spleen at 100 to 200 mg/kg, po bid treated for 21 days by H and E staining assay; assay type: organism-based, Lewis lung carcinoma; conditions: in vivo, 504 h, dose 100-200 mg/kg, time 21 day
[29] = Apparent permeability of the compound across apical to basolateral side in dog MDCK-II cells measured for 2 hrs by LC-MS/MS analysis; assay type: ADME, cell-based, Canis lupus familiaris
[30] = Half life in Sprague-Dawley rat at 5 mg/kg, iv by LC-MS/MS analysis; assay type: ADME, organism-based; conditions: in vivo
[31] = Oral bioavailability in Sprague-Dawley rat at 25 mg/kg by LC-MS/MS analysis; assay type: ADME, organism-based; conditions: in vivo
[32] = biological target: T1, Indoleamine 2,3-dioxygenase 1; assay: Inhibition of human recombinant IDO1 assessed as reduction in N-formylkynurenine formation using L-tryptophan as substrate preincubated for 30 mins followed by substrate addition and measured after 20 mins by SpectraMax microplate reader analysis

CCNC(=O)Nc1nonc1/C(=N/O)Nc1ccc(F)c(Br)c1
Activity [1]: Non-Toxic
AUC(0-t) [2]: 2640 ng·h/mL
AUC(0-inf) [3]: 2690 ng·h/mL
Activity [4]: Non-Toxic
inhibition in vivo at 100 mg/kg [5]: 41.5%
Tmax [6]: 1 h
Activity [7]: Non-Toxic
half-life [8]: 1.31 h
Papp B→A at 2 h [9]: 22.6 ×10⁻⁶ cm/s
efflux ratio at 2 h (in vitro): 0.58
Activity [10]: Non-Toxic
pIC50 [11]: 7.75
clearance [12]: 32.3 mL/min/kg
inhibition in vivo at 200 mg/kg [13]: 53.1%
Tmax [14]: 1.98 min
inhibition [15]: inactive
pIC50 (CT26): 4.46
Activity [16]: Non-Toxic
pIC50 (cells): < 4.30
Activity [17]: Non-Toxic
pIC50 (HCT-116): 4.71
AUC(0-inf) [18]: 2250 ng·h/mL
Activity [19]: Non-Toxic
Activity [20]: Non-Toxic
AUC(0-t) [21]: 2220 ng·h/mL
pIC50 (HeLa): 4.34
Vd [22]: 4.01 L/kg
Cmax [23]: 10000 ng/mL
Activity [24]: Non-Toxic
inhibition [25]: inactive
Activity [26]: Non-Toxic
Cmax [27]: 1690 ng/mL
Activity [28]: Non-Toxic
Papp A→B at 2 h [29]: 38.6 ×10⁻⁶ cm/s
half-life [30]: 1.62 h
bioavailability [31]: 16.8%
pIC50 [32]: 7.17
